Where a name gives a salt, the structure may show the parent alone. Read-outs that look alike come from different tables or passages of the source.
Experiments:
HCV genotype-1 [1] = assay: Clinical study with treatment-naive patients: monotherapy 14 days, then triple combination with P+R 14 days; settings: for VL rebound during treatment: first 14 days of monotherapy, all dose groups
Method: Plasma HCV-RNA levels were measured with Roche COBAS® TaqMan® assay (LLOQ 25 IU/m L). After Day 28, at the discretion of the investigator, patients could continue to receive standard of care treatment, i.e., P+R.

HCV NS3 protease = HCV NS3 protease inhibitor EC50 (background statement); assay type: cell-based
HCV genotype-1 [2] = settings: for Below Limit of Quantification at D 28 (number of patients) / Below Limit of Quantification at D 28 (percent of patients): less than 25 IU per ml of serum; for Virologic rebound during treatment (patients with rebound/patients in group) / Virologic rebound during treatment: first 28 days
Method: All patients were monitored for safety and tolerability of study drugs. The primary endpoint was a ≧2 log 10 reduction in HCV viral load (VL) from baseline at any time up to Day 28. Plasma HCV-RNA levels were measured using the Roche COBAS® TaqMan® assay (LLOQ 25 IU/mL). The treatment experienced patients in this study included P+R null responders and partial respoders. After Day 28, at the discretion of the investigator, patients could continue to receive standard of care treatment, i.e., P+R.

[3] = Trough plasma concentration of Compound (1) with or without two-fold first loading dose; assay type: in vivo, human; settings: TE patients; for Mean steady state trough of Days 10-29 / Geometric mean trough plasma concentration: + P+R
Text: Trough (pre-dose) plasma samples were collected on Days 2, 3, 4, 6, 10, 14, 21, 28 and 29 following the initiation of combination treatment on Day 1.

[4] = 240 mg QD SGC with first 480 mg loading dose, Day 3
[5] = 240 mg QD SGC with first 480 mg loading dose, Day 4
[6] = 240 mg QD SGC with first 480 mg loading dose, Day 6
[7] = 240 mg QD solution (PiB) without loading dose, Day 3
[8] = 240 mg QD solution (PiB) without loading dose, Day 4
[9] = 240 mg QD solution (PiB) without loading dose, Day 6

Question: For `C=C[C@@H]1C[C@]1(NC(=O)[C@@H]1C[C@H](Oc2cc(-c3csc(NC(=O)C(C)C)n3)nc3c(Br)c(OC)ccc23)CN1C(=O)[C@@H](NC(=O)OC1CCCC1)C(C)(C)C)C(=O)O` [Compound (1) sodium salt], which “Serious AE” value (HCV genotype-1 [1]; 20 mg dose cohort, 6 days after initiating P+R) is on record?
Answer: One serious AE, asthenia

Question: And the “Median (range) maximal reduction in VL during 14 day monotherapy” value (“Median (range) maximal reduction” below) (HCV genotype-1 [1]; 20 mg qd)?
Answer: […]

Question: And the “Median (range) maximal reduction” value (HCV genotype-1 [1]; 48 mg qd)?
Answer: […]

Question: What about the “Median (range) maximal reduction” value (HCV genotype-1 [1]; 120 mg qd) of the same molecule?
Answer: […]

Question: What about the “Median (range) maximal reduction” value (HCV genotype-1 [1]; 240 mg qd) of the same molecule?
Answer: […]

Question: What about the “VL decline during the monotherapy period” value (HCV genotype-1 [1]; all pts on drug except 1 pt in the 20 mg cohort) of the same molecule?
Answer: […]

Question: And the “Discontinuation of treatment due to adverse events” value (HCV genotype-1 [1]; during monotherapy)?
Answer: No pts discontinued treatment

Question: What about the “VL rebound during treatment” value (HCV genotype-1 [1]) of the same molecule?
Answer: a majority of patients

Question: What about the “VL rebound during treatment” value (HCV genotype-1 [1]; listed as Compound (1) (sodium salt)) of the same molecule?
Answer: a majority of the patients

Question: What about the Tolerability (HCV genotype-1 [1]; treatment-naive pts, 20-240 mg qd, monotherapy 14 days then + P+R 14 days) of the same molecule?
Answer: well tolerated

Question: What about the “Maximal decline D 1-14” value (HCV genotype-1 [2]; 48 mg QD, N = 6, + P+R) of the same molecule?
Answer: 4.4 ×log10

Question: And the “Mean decline at D 6” value (HCV genotype-1 [2]; 48 mg QD, N = 6, + P+R)?
Answer: […]

Question: What about the “Below Limit of Quantification at D 28 (number of patients)” value (shortened to “Below Limit … (number of patients)”) (HCV genotype-1 [2]; 48 mg QD, N = 6, + P+R) of the same molecule?
Answer: […]

Question: What about the “Below Limit of Quantification at D 28 (percent of patients)” value (HCV genotype-1 [2]; 48 mg QD, N = 6, + P+R) of the same molecule?
Answer: […]

Question: What about the “Median (range) maximal decline in VL during 28 day combination therapy” value (“Median (range) maximal decline” below) (HCV genotype-1 [2]; 48 mg qd + P+R) of the same molecule?
Answer: […]

Question: And the “Maximal decline D 1-14” value (HCV genotype-1 [2]; 120 mg QD, N = 7, + P+R)?
Answer: 4.5 ×log10

Question: And the “Mean Decline at D 14” value (HCV genotype-1 [2]; 120 mg QD, N = 7, + P+R)?
Answer: 4.3 ×log10

Question: What about the “Below Limit … (number of patients)” value (HCV genotype-1 [2]; 120 mg QD, N = 7, + P+R) of the same molecule?
Answer: […]

Question: What about the “Median (range) maximal decline” value (HCV genotype-1 [2]; 120 mg qd + P+R) of the same molecule?
Answer: […]

Question: And the “Virologic rebound during treatment (patients with rebound/patients in group)” value (HCV genotype-1 [2]; 120 mg qd + P+R)?
Answer: […]

Question: What about the “Maximal decline D 1-14” value (HCV genotype-1 [2]; 240 mg QD, N = 6, + P+R) of the same molecule?
Answer: […]

Question: What about the “Mean Decline at D 14” value (HCV genotype-1 [2]; 240 mg QD, N = 6, + P+R) of the same molecule?
Answer: […]

Question: What about the “Mean decline at D 6” value (HCV genotype-1 [2]; 240 mg QD, N = 6, + P+R) of the same molecule?
Answer: […]

Question: And the “Below Limit … (number of patients)” value (HCV genotype-1 [2]; 240 mg QD, N = 6, + P+R)?
Answer: […]

Question: What about the “Below Limit of Quantification at D 28 (percent of patients)” value (HCV genotype-1 [2]; 240 mg QD, N = 6, + P+R) of the same molecule?
Answer: […]

Question: And the “Virologic rebound during treatment” value (HCV genotype-1 [2]; 240 mg qd + P+R, listed as Compound (1) (sodium salt))?
Answer: no rebound

Question: And the “Serious or severe adverse events” value (HCV genotype-1 [2]; 48-240 mg qd + P+R, 28 days)?
Answer: no serious or severe adverse events

Question: And the “Discontinuation of treatment due to an AE” value (HCV genotype-1 [2]; AE: anxiety)?
Answer: One subject discontinued treatment

Question: And the Tolerability (HCV genotype-1 [2]; treatment-experienced pts, 48-240 mg qd + P+R, 28 days)?
Answer: well tolerated

Question: What does the source list for `C=C[C@@H]1C[C@]1(NC(=O)[C@@H]1C[C@H](Oc2cc(-c3csc(NC(=O)C(C)C)n3)nc3c(Br)c(OC)ccc23)CN1C(=O)[C@@H](NC(=O)OC1CCCC1)C(C)(C)C)C(=O)O` [Compound (1)]?
Answer: Mean steady state trough of Days 10-29 ([3]; 240 mg QD SGC with first 480 mg loading dose): 5,774; Geometric mean trough plasma concentration [3, 4]: […]; Geometric mean trough plasma concentration [3, 5]: 5,640; Geometric mean trough plasma concentration [3, 6]: 7,060; Geometric mean trough plasma concentration ([3]; 240 mg QD SGC with first 480 mg loading dose, Day 10): 6,580; Geometric mean trough plasma concentration ([3]; 240 mg QD SGC with first 480 mg loading dose, Day 14): 5,590; Geometric mean trough plasma concentration ([3]; 240 mg QD SGC with first 480 mg loading dose, Day 21): 5,410; Geometric mean trough plasma concentration ([3]; 240 mg QD SGC with first 480 mg loading dose, Day 28): 5,960; Geometric mean trough plasma concentration ([3]; 240 mg QD SGC with first 480 mg loading dose, Day 29): […]; % of mean steady state trough of Days 10-29 ([3]; 240 mg QD SGC with first 480 mg loading dose, Day 2): […]; % of mean steady state trough of Days 10-29 [3, 4]: 81.2%; % of mean steady state trough of Days 10-29 [3, 5]: 97.7%; % of mean steady state trough of Days 10-29 [3, 6]: 122.3%; Geometric mean trough plasma concentration ([3]; 240 mg QD soft gelatin capsules (SGC) with a first 480 mg loading dose, Day 2): 3,470; Geometric mean trough plasma concentration ([3]; 240 mg QD solution (PiB) without a first 480 mg loading dose, Day 2): 710; Mean steady state trough of Days 10-29 ([3]; 240 mg QD solution (PiB) without loading dose): […]; Geometric mean trough plasma concentration [3, 7]: […]; Geometric mean trough plasma concentration [3, 8]: 2,420; Geometric mean trough plasma concentration [3, 9]: 2,950; Geometric mean trough plasma concentration ([3]; 240 mg QD solution (PiB) without loading dose, Day 10): 2,930; Geometric mean trough plasma concentration ([3]; 240 mg QD solution (PiB) without loading dose, Day 14): 2,850; Geometric mean trough plasma concentration ([3]; 240 mg QD solution (PiB) without loading dose, Day 21): […]; Geometric mean trough plasma concentration ([3]; 240 mg QD solution (PiB) without loading dose, Day 28): […]; Geometric mean trough plasma concentration ([3]; 240 mg QD solution (PiB) without loading dose, Day 29): […]; % of mean steady state trough of Days 10-29 ([3]; 240 mg QD solution (PiB) without loading dose, Day 2): […]; % of mean steady state trough of Days 10-29 [3, 7]: 49.2%; % of mean steady state trough of Days 10-29 [3, 8]: […]; % of mean steady state trough of Days 10-29 [3, 9]: 87.4%; Pts with VL <25 IU/mL at Day 28 (HCV genotype-1 [2]; 240 mg qd + P+R): […]; Virologic rebound during treatment (HCV genotype-1 [2]; 240 mg qd + P+R): No rebound; Decline in VL from baseline on Day 28 (HCV genotype-1 [2]; sixth pt of the 240 mg qd cohort): […]

Reference: US8822496B2, “Dosage regimens for HCV combination therapy” (priority 2009, dated 2014)
